Measured values taken from ChEMBL document CHEMBL1909607, “Synthesis and radioligand binding studies of bis-(8-isopropyl-isoquinolinium) derivatives as ligands for apamin-sensitive sites on cloned SK2 and SK3 channels” (Bioorg Med Chem Lett, 2011).

How the values were obtained:
Type in all cases: cell-based
[1] = target: T1, Small conductance calcium-activated potassium channel protein 2 (Homo sapiens, UniProt Q9H2S1); experiment: Inhibition of cloned SK2 channel expressed in human HEK293 cells at 10 uM
[2] = target: T2, Small conductance calcium-activated potassium channel protein 3 (Homo sapiens, UniProt Q9UGI6); experiment: Displacement of [125I]-apamin from cloned SK3 channel expressed in human HEK293 cells after 1 hr by liquid scintillation counting
[3] = target: T1, Small conductance calcium-activated potassium channel protein 2; experiment: Displacement of [125I]-apamin from cloned SK2 channel expressed in human HEK293 cells after 1 hr by liquid scintillation counting
[4] = target: T2, Small conductance calcium-activated potassium channel protein 3; experiment: Inhibition of cloned human SK3 channel expressed in human HEK293 cells by patch clamp assay in the presence of 1 uM intracellular Ca2+
[5] = target: Small conductance calcium-activated potassium channel protein 2 (Rattus norvegicus, UniProt P70604); experiment: Inhibition of cloned rat SK2 channel expressed in human HEK293 cells by patch clamp assay in the presence of 1 uM intracellular Ca2+
Small conductance calcium-activated potassium channel protein 2 (Rattus norvegicus, UniProt P70604), sequence (P70604 whole entry): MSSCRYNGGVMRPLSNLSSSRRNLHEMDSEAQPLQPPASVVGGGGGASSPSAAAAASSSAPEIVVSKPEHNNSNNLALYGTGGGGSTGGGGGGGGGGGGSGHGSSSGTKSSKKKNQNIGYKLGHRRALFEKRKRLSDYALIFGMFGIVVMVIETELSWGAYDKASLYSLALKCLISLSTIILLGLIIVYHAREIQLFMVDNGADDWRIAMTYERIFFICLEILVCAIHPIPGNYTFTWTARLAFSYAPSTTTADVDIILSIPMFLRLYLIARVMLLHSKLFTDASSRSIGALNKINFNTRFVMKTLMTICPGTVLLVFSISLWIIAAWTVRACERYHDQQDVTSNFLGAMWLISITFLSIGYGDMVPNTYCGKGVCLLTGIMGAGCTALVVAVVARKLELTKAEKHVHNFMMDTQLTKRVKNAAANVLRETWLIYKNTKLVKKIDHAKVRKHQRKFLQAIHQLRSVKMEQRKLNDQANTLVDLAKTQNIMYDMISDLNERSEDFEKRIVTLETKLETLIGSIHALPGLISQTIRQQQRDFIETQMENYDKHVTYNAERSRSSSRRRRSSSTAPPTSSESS

T2 sequence (Q9UGI6 whole entry): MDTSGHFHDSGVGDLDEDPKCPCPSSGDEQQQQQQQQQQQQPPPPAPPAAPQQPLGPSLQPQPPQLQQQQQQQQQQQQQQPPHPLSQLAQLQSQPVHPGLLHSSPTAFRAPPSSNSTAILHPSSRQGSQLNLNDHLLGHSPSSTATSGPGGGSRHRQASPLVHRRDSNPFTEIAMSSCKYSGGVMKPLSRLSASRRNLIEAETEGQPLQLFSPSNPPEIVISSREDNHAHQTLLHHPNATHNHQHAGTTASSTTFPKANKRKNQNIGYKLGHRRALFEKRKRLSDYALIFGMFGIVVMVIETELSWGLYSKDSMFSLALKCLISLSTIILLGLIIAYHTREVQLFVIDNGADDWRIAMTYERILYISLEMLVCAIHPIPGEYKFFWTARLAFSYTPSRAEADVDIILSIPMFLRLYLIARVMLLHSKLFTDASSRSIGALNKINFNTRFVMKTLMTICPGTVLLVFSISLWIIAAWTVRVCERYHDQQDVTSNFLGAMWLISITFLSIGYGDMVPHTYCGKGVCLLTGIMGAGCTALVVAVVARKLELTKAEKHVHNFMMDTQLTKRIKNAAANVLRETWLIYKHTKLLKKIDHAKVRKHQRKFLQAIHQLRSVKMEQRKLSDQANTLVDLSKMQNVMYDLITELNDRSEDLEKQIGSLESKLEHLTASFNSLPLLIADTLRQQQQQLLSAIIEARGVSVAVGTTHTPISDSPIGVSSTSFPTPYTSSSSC
T1 sequence (Q9H2S1 whole entry): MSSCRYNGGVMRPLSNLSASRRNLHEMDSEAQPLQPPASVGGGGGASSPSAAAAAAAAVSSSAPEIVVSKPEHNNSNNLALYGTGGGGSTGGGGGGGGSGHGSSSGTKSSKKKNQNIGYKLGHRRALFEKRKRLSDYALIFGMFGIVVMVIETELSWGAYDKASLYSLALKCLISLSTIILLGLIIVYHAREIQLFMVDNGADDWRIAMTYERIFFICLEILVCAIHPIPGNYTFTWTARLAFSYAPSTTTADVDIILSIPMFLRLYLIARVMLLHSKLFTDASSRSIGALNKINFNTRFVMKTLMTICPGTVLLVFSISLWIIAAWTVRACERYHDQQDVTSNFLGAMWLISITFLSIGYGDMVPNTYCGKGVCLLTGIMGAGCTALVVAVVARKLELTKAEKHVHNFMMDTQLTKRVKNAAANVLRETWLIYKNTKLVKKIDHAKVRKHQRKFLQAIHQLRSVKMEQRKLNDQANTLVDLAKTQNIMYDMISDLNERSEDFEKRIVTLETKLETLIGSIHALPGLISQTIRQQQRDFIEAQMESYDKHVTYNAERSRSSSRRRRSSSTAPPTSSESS

Row | SMILES | inhibition [1] | Ki [2] | Ki [3] | other results
1 | CC(C)c1cccc2c1C(Cc1cccc(CC3c4c(cccc4C(C)C)CCN3C)c1)N(C)CC2 (racemic) | 41% | – | – | –
2 | CC(C)c1cccc2cc[n+](C)c(CCCCCc3c4c(C(C)C)cccc4cc[n+]3C)c12 | – | 575 nM | 878 nM | –
3 | CC(C)c1cccc2c1C(Cc1ccc(CC3c4c(cccc4C(C)C)CCN3C)cc1)N(C)CC2 (racemic) | 41% | – | – | –
4 | CC(C)c1cccc2c1C(CCCCC1c3c(cccc3C(C)C)CCN1C)N(C)CC2 (racemic) | 41% | – | – | –
5 | CC(C)c1cccc2c1C(CCCCCC1c3c(cccc3C(C)C)CCN1C)N(C)CC2 (racemic) | 41% | – | – | –
6 | CC(C)c1cccc2c1C(CCCC1c3c(cccc3C(C)C)CCN1C)N(C)CC2 (racemic) | 41% | – | – | –

Now from value to compound, other results behind:

Row | inhibition [1] | Ki [2] | Ki [3] | SMILES | other results
7 | – | 214 nM | 194 nM | CC(C)c1cccc2cc[n+](C)c(CCCCc3c4c(C(C)C)cccc4cc[n+]3C)c12 | –
8 | – | 837 nM | 593 nM | CC(C)c1cccc2cc[n+](C)c(CCCc3c4c(C(C)C)cccc4cc[n+]3C)c12 | –
9 | – | 46 nM | 90 nM | CC(C)c1cccc2cc[n+](C)c(Cc3cccc(Cc4c5c(C(C)C)cccc5cc[n+]4C)c3)c12 | IC50 [4]: 2970 nM; IC50 [5]: 1600 nM
10 | – | 1270 nM | 397 nM | CC(C)c1cccc2cc[n+](C)c(Cc3ccc(Cc4c5c(C(C)C)cccc5cc[n+]4C)cc3)c12 | –
